In data set [1] the test system is acne papule biopsies, Diseases or Functions Annotation. Nature of the data set: Ingenuity Pathway Analysis, diseases or functions activation of the trifarotene signature. Format: in vivo, human. The settings on record: trifarotene treated area (day 27) vs papule before treatment. The protocol:
Functional and network analysis were generated with the Ingenuity Pathway Analysis software (QIAGEN® Inc., qiagenbioinformatics.com/products/ingenuity-pathway-analysis), and with Open Targets (opentargets.org/). IPA was used to identify canonical pathways, diseases and functions, and gene networks related to differentially expressed genes in acne lesions and post-lesional skin after treatment with trifarotene or vehicle. In addition, gene set enrichment analysis was performed with the R package FGSEA (version 1.12.0) using the hallmark and reactome gene sets. A comparative analysis was performed to identify expression patterns: For this analysis, the following comparisons were made to develop characteristic expression patterns: (a) Papule before treatment vs non-involved skin was used to derive an acne signature; (b) Resolved papule zone after treated with vehicle vs papule before treatment was used to derive signature of spontaneously resolved papule; and (c) Resolved papule zone after treatment with trifarotene vs papule before treatment to determine trifarotene treatment signature. […]

Data set [2] has as its system cell types in skin biopsies (macrophage subsets, B cells, melanocytes, venular cells). In words: Cell type scoring (cell-type gene signature expression scores in biopsies). The data set is classed as in vivo, human. An excerpt:
Single-Cell Analysis and Cell Marker Definition: Single-cell RNAseq data from Hughes et al. was used to determine the major cell types present in skin biopsies and the associated cell markers. Acne and normal samples from GSE150672 were downloaded and analyzed using the Seurat package. Data were normalized, scaled, and log-transformed. The most variable genes were selected based on their expression and dispersion. To reduce dimensionality, principal component analysis (PCA) was applied. The first eight principal components were used to cluster the cells using the graph-based approach FindClusters function in Seurat, with a resolution parameter of 0.4. Graphical representation of cell clusters was achieved using UMAP. A combination of known markers and differentially expressed genes was used to characterize cell clusters. Major cell type markers retained for scoring analysis included: B cells: MS4A1, CD79A; Fibroblasts: DCN, COL6A2, APOD, CFD, IGFBP5, COL1A2, COL1A1, COL3A1; Keratinocytes: KRT5, KRT1, KRT14, KRT15, S100A2, KRT6A, HOPX, KRT10, DSP; Langerhans cells: CD207; Mast cells: CPA3, IL1RL1, CTSG, TPSAB1, GATA2; Melanocytes: MLANA, MITF, PMEL, DCT; Myeloid cells: CD68, CTSS; Schwann cells: SCN7A; T cells: CD3D, TRBC2, IL7R, PTPRC, CXCR4; Venular cells: SELE, CD93, TM4SF1, A2M, RCAN1; Vascular smooth muscle cells (VSMC): TAGLN, RGS5, MYH11, ACTA2, MYL9.
Macrophage Gene Signatures: Gene markers specific to each class of macrophage were derived from the literature. For M0, M1 and M2 macrophages, the markers described in Newman et al. (Robust enumeration of cell subsets from tissue expression profiles, Nat Methods, 12:453-7, 2015) were used. For SPP1 activated macrophages, the markers from Morse et al. (Proliferating SPP1/MERTK-expressing macrophages in idiopathic pulmonary fibrosis. Eur Respir J., 54:1802441) were used. Final markers were as listed. M0 macrophage: ACP5, BHLHE41, C5AR1, CCDC102B, CCL22, CCL7, COL8A2, CSF1, CXCL3, CXCL5, CYP27A1, DCSTAMP, GPC4, HK3, IGSF6, MARCO, MMP9, NCF2, PLA2G7, PPBP, QPCT, SLAMF8, SLC12A8, TNFSF14, VNN1. M1 macrophage: ACHE, APOBEC3A, APOL3, APOL6, ARRB1, CCL19, CCL5, CCR7, CD38, CD40, CHI3L1, CXCL10, CXCL11, CXCL13, CXCL9, CYP27B1, DHX58, HESX1, IDO1, IFI44L, IL2RA, KIAA0754, KYNU, LAG3, LAMP3, LILRA3, LILRB2, NOD2, PLA1A, PTGIR, RASSF4, RSAD2, SLAMFI, SLC2A6, SOCS1, TLR7, TNFAIP6, TNIP3, TRPM4. M2 macrophage: AIF1, ALOX15, CCL13, CCL14, CCL23, CD209, CD4, CFP, CLEC10A, CLEC4A, CRYBB1, FES, FRMD4A, FZD2, GSTT1, HRH1, HTR2B, MS4A6A, NME8, NPL, P2RY13, PDCD1LG2, RENBP, WNT5B. SPP1 macrophage: MERTK, CD14, SPP1, CD68, LYZ.
Cell Type Scoring: Each cell type gene signature was used to define a cell type average gene expression in each of our clinical study samples, calculated as the average of the log 2 expression values of these markers. Boxplots were used to visualize the distribution of cell type gene expression scores between clinical groups. Statistical significance was assessed using Wilcoxon rank sum test. Graphs were generated using the ggpubr data visualization library.

Regarding `CC(C)(C)c1cc(-c2cc(-c3ccc(C(=O)O)cc3)ccc2OCCO)ccc1N1CCCC1` [Trifarotene, 3″-tert-Butyl-4′-(2-hydroxy-ethoxy)-4″-pyrrolidin-1-yl-[1,1′,3′,1″ ]terphenyl-4-carboxylic acid], in data set [1], the “Activation z.score Trifarotene signature: Flux of Ca2+” value is reported as −2.838. In data set [2] (following trifarotene treatment), the venular cells entry is reported as “trend toward a decrease”. In addition, the “M0, M1 and M2 macrophages” value in data set [2] (spontaneously resolved vs trifarotene treated biopsies) was “not significantly different”. For the same compound, the increase in melanocytes entry in data set [2] (trifarotene treated vs spontaneously resolved acne lesions) is “greater in the trifarotene treated samples”. Moreover, the B cell frequencies result in data set [2] (trifarotene treatment vs. spontaneous resolution) is “greater impact in reducing B cell frequencies”. For the same compound, in data set [2] (trifarotene treatment vs. spontaneously resolved acne papules, P=0.040), the “frequencies of SPP1+ macrophages” value was “significantly reduced”.

For the origin of these results see US20240058268A1, “METHODS OF TREATING SKIN DISORDERS” (priority 2021, published 2024).
